Where two headings read alike, the source gives them in different places.
Experiments:
786-0 = assay: MTT cytotoxicity (IC50), 786-0; type: cell-based; conditions: Homo sapiens
Description: (§1) Compound 17932 was tested in four of these cell lines, while the remaining compounds were tested in all of these cell lines. All cell lines were maintained in RPMI-1640 tissue culture medium (TCM, supplemented with antibiotics and 10% fetal bovine serum) and cultured at 37° C. in humidified air containing 5% CO2. To assess the antiproliferative effects of the test compounds, 172 μL of tumor cell suspension (1.45×10^4 cells/ml) were added to each well of a 96-well plate and incubated for 24 h at 37° C. in 5% CO2 in air to allow cells to adhere. Seven 2-fold drug dilutions in TCM/DMSO were performed in triplicate in separate 96-well plates and 28 μL was transferred to the wells containing tumor cells (200 μL final volume/0.1% DMSO). Plates were incubated for 72 h and cell viability was determined by adding 50 μL of warm TCM containing 5 mg/mL MTT (3-[4,5-dimethylthiazol-2-yl]-2,5-diphenyltetrazolium bromide) to each well and incubating for 1 h at 37° C. Plates were processed and the absorbances of the resulting solutions were measured by a plate reader at 570 nm. […] (GraphPad Prism version 4.00 for Windows). Studies were conducted by Taxolog, Inc., Tallahassee, Fla.

HOP-18 = assay: MTT cytotoxicity (IC50), HOP-18; type: cell-based; conditions: Homo sapiens, 72 h, read-out: IN Vitro IC50 (nm) HOP18
Description: as §1

SNB-19 = assay: MTT cytotoxicity (IC50), SNB-19; type: cell-based; conditions: Homo sapiens, 72 h, read-out: IN Vitro IC50 (nm) SNB19
Description: as §1

OVCAR5 = assay: MTT cytotoxicity (IC50), OVCAR5; type: cell-based; conditions: Homo sapiens, OVCAR-5, 72 h, read-out: IN Vitro IC50 (nm) OVCAR5
Description: as §1

PANC-1 = assay: MTT cytotoxicity (IC50), PANC-1; type: cell-based; conditions: Homo sapiens, 72 h, read-out: IN Vitro IC50 (nm) Panc
Description: as §1

HCT116 = assay: MTT cytotoxicity (IC50), HCT116; type: cell-based; conditions: Homo sapiens, HCT-116, 72 h, read-out: IN Vitro IC50 (nm) HCT116
Description: as §1, with “All” for “Compound 17932 was tested in four of these cell lines, while the remaining compounds were tested in all of these cell lines. All”

[1] = tested on: HT29 human tumor xenografts; assay: HT29 xenograft study e212, oral and i.v. (Example 26)
Excerpt: The formulation for oral studies was an ethanol and Cremophor formulation while the formulation for compound 18365 and compound 19244 dosed i.v. was 5% ethanol and 95% Liposyn II 20%.

MALME-3 = assay: MTT cytotoxicity (IC50), MALME-3; type: cell-based; conditions: Homo sapiens, 72 h, read-out: IN Vitro IC50 (nm) Malme3
Description: as §1

[2] = tested on: human MX-1 breast carcinoma; assay: MX1 xenograft study e219R1, i.v. single dose (Example 17)
HT29 = assay: MTT cytotoxicity (IC50), HT29; type: cell-based; conditions: Homo sapiens, HT-29, 72 h, read-out: IN Vitro IC50 (nm) HT29
Description: as §1

BxPC-3 cancer cell line = assay: MTT cytotoxicity (IC50), BxPC-3 (Oncodesign); type: cell-based; conditions: Homo sapiens
Description: BxPC-3 cancer cell line (Source ATCC) and culture medium were purchased and provided by Oncodesign (France).
Tumor cells (5,000 cells per well) were plated in 96-well flat-bottom microtitration plates (Ref 167008, Batch 083310, Nunc, Dutscher, Brumath, France) and incubated at 37° C. for 24 hours before treatment in 100 μl of drug-free RPMI 1640 medium supplemented with 10% FBS. Tumor cell lines were incubated for 72 hours with 10 concentrations of both test substances and TXT (40 to 0.07 nM using ½ step dilutions). Experiments were repeated three times, each assay being issued from quadruplicate. Control cells were treated with the vehicle alone. At the end of treatments, the cytotoxic activity was evaluated by a MTT assay. These studies were conducted at Oncodesign, France.

OVCAR4 = assay: MTT cytotoxicity (IC50), OVCAR4; type: cell-based; conditions: Homo sapiens, OVCAR-4, 72 h, read-out: IN Vitro IC50 (nm) OVCAR4
Description: as §1

[3] = MTT, 72 h, read-out: IN Vitro IC50 (nm) 786-0
[4] = Resistance MDR1+, read-out: 786-0 Renal (Table 4, quantity not named; IC50 values as Table 2)
[5] = 25 mg/kg iv qwk × 3, vehicle ET
[6] = BXPC-3, 72 h, Exp 1, MTT, 72 hours, read-out: IC50 (nM) BxPC-3
[7] = BXPC-3, 72 h, Exp 2, MTT, 72 hours, read-out: IC50 (nM) BxPC-3
[8] = BXPC-3, 72 h, Exp 3, MTT, 72 hours, read-out: IC50 (nM) BxPC-3
[9] = BXPC-3, mean of 3 experiments, read-out: IC50 Mean ± SD (nM) BxPC-3

CC(=O)O[C@@]12CO[C@@H]1C[C@H](O)[C@@]1(C)C(=O)[C@H](O)C3=C(C)[C@@H](OC(=O)[C@H](O)[C@@H](NC(=O)OC(C)(C)C)c4ccccc4)C[C@@](O)([C@@H](OC(=O)c4ccccc4)[C@H]21)C3(C)C [Docetaxel, docetaxel, reference compound]
IC50 (786-0; [3]): 6.2 nM | IC50 (786-0; [4]): 6.2 nM | IC50 (HOP-18): 3.4 nM | IC50 (SNB-19): 1.9 nM | IC50 (OVCAR5): 1.1 nM | IC50 (PANC-1): 1.9 nM | IC50 (HCT116): 0.9 nM | CR (complete regression) ([1]; 25 mg/kg iv qwk × 3, n=6): 0 | NTR NTRm ([1]; 25 mg/kg iv qwk × 3, n=6): 0 | PR (partial regression) ([1]; 25 mg/kg iv qwk × 3, n=6): 3 | TFS (tumor-free survivor) ([1]; 25 mg/kg iv qwk × 3, n=6): 0 | TR (treatment-related death) ([1]; 25 mg/kg iv qwk × 3, n=6): 0 | % TGD [1, 5]: 237.14% | MTV (n), Day 59 [1, 5]: 600.00 (6) mm^3 | Median TTE [1, 5]: 59 days | T-C [1, 5]: 41.5 days | IC50 (MALME-3): 1.8 nM | % TGD ([2]; 25 mg/kg iv qd × 1): 89.79% | BW Nadir ([2]; 25 mg/kg iv qd × 1): −10.2% (5) | MTV (n), Day 60 ([2]; 25 mg/kg iv qd × 1): 0.00 (5) mm^3 | Median TTE ([2]; 25 mg/kg iv qd × 1): 61 days | T-C ([2]; 25 mg/kg iv qd × 1): 28.86 days | CR (complete regression) ([2]; 25 mg/kg iv qd × 1, n=5): 5 | NTR (non-treatment-related death) ([2]; 25 mg/kg iv qd × 1, n=5): 0 | PR (partial regression) ([2]; 25 mg/kg iv qd × 1, n=5): 0 | TFS (tumor-free survivor) ([2]; 25 mg/kg iv qd × 1, n=5): 4 | TR (treatment-related death) ([2]; 25 mg/kg iv qd × 1, n=5): 0 | group mean weight loss ([2]; 25 mg/kg qd×1): 10.2% | transient CR ([2]; 25 mg/kg qd×1, n=5): 1 | IC50 (HT29): 1.3 nM | IC50 (BxPC-3 cancer cell line; [6]): 0.93 nM | IC50 (BxPC-3 cancer cell line; [7]): 2.2 nM | IC50 (BxPC-3 cancer cell line; [8]): 0.73 nM | IC50 (BxPC-3 cancer cell line; [9]): 1.29 ± 0.8 nM | IC50 (OVCAR4): 1.4 nM

CC(=O)O[C@@]12CO[C@@H]1C[C@H](O)[C@@]1(C)C(=O)[C@H](OC(=O)C3CC3)C3=C(C)[C@@H](OC(=O)[C@H](O)[C@@H](NC(=O)OC4CCC4)c4cccs4)C[C@@](O)([C@@H](OC(=O)c4ccccc4)C12)C3(C)C (stereo partly shown) [Compound 18365]
IC50 (786-0; [3]): 1.1 nM | IC50 (786-0; [4]): 1.1 nM | IC50 (HOP-18): 0.7 nM | IC50 (SNB-19): 1.1 nM | IC50 (OVCAR5): 0.3 nM | IC50 (PANC-1): 1.2 nM | IC50 (HCT116): 0.4 nM | activity in the HT29 xenograft tumor model ([1]; every four day schedule for four doses): oral and IV activity | IC50 (MALME-3): 4.1 nM | % TGD ([2]; 7.5 mg/kg iv qd × 1): 12.92% | BW Nadir ([2]; 7.5 mg/kg iv qd × 1): −3.8% (4) | Median TTE ([2]; 7.5 mg/kg iv qd × 1): 36.29 days | T-C ([2]; 7.5 mg/kg iv qd × 1): 4.15 days | activity (statistical significance) ([2]; 7.5 mg/kg iv qd × 1): non-significant activity | CR (complete regression) ([2]; 7.5 mg/kg iv qd × 1, n=5): 0 | NTR (non-treatment-related death) ([2]; 7.5 mg/kg iv qd × 1, n=5): 0 | PR (partial regression) ([2]; 7.5 mg/kg iv qd × 1, n=5): 0 | TFS (tumor-free survivor) ([2]; 7.5 mg/kg iv qd × 1, n=5): 0 | TR (treatment-related death) ([2]; 7.5 mg/kg iv qd × 1, n=5): 0 | % TGD ([2]; 15 mg/kg iv qd × 1): 76.26% | BW Nadir ([2]; 15 mg/kg iv qd × 1): −6.8% (5) | MTV (n), Day 60 ([2]; 15 mg/kg iv qd × 1): 1098.50 (1) mm^3 | Median TTE ([2]; 15 mg/kg iv qd × 1): 56.65 days | T-C ([2]; 15 mg/kg iv qd × 1): 24.51 days | maximum group mean BW loss ([2]; 15 mg/kg iv qd × 1): 6.8% | CR (complete regression) ([2]; 15 mg/kg iv qd × 1, n=5): 2 | NTR (non-treatment-related death) ([2]; 15 mg/kg iv qd × 1, n=5): 0 | PR (partial regression) ([2]; 15 mg/kg iv qd × 1, n=5): 1 | TR (treatment-related death) ([2]; 15 mg/kg iv qd × 1, n=5): 0 | % TGD ([2]; 30 mg/kg iv qd × 1): 89.79% | BW Nadir ([2]; 30 mg/kg iv qd × 1): −16.0% (5) | MTV (n), Day 60 ([2]; 30 mg/kg iv qd × 1): 0.00 (5) mm^3 | Median TTE ([2]; 30 mg/kg iv qd × 1): 61 days | T-C ([2]; 30 mg/kg iv qd × 1): 28.86 days | maximum group mean BW loss ([2]; 30 mg/kg iv qd × 1): 16% | CR (complete regression) ([2]; 30 mg/kg iv qd × 1, n=5): 5 | NTR (non-treatment-related death) ([2]; 30 mg/kg iv qd × 1, n=5): 0 | PR (partial regression) ([2]; 30 mg/kg iv qd × 1, n=5): 0 | TFS (tumor-free survivor) ([2]; 30 mg/kg iv qd × 1, n=5): 5 | TR (treatment-related death) ([2]; 30 mg/kg iv qd × 1, n=5): 0 | minimal effective dose ([2]; iv qd × 1, lowest dose with statistically significant results and at least one D61 survivor or regression): 15 mg/kg | IC50 (HT29): 0.5 nM | IC50 (BxPC-3 cancer cell line; [6]): 0.79 nM | IC50 (BxPC-3 cancer cell line; [7]): 1.07 nM | IC50 (BxPC-3 cancer cell line; [8]): 0.99 nM | IC50 (BxPC-3 cancer cell line; [9]): 0.95 ± 0.14 nM | IC50 (OVCAR4): 1.1 nM
